Measured values reported in patent US5145848A, “Amino anthracenediones-bis platinum complexes, useful as antitumoral agents” (priority 1987, dated 1992).

Legend:
leukaemia P388 = experiment: Antitumour activity against leukaemia P388 in rats CD2 F1, i.p. (Table I); type: in vivo; conditions: for MST / T/C % / TOX: day 1; for LTS (60 days): day 1, 60 days
Method: 10^5 leukaemic cells were injected at day 0 and the compounds were administered intraperitoneally the day after, defined as day 1 of the experiment.

K562 cells = experiment: In vitro growth inhibition of human erythroleukosis K562 (Table III); type: cell-based
Method: (§1) Effect of BBR 1939 on in vitro growth^b) of murine leukaemia^a)
L1210/CDDP and human erythroleukosis
K562 b - Comparison with CDDP:
(§2) ^a) 10^5 cells were plated in triplicate at time
(§3) ^b) means used: RPMI 1640 + 10 Y FCS (inactivated in warm) +
(§4) 2mercaptoethanol 10^-3 M
(§5) ^c) IC %: inhibition percentage of cellular growth (treated animals

human tumors = conditions: cited from earlier work
L1210/CDDP cells = experiment: In vitro growth inhibition of murine leukaemia L1210/CDDP (Table III); type: cell-based
Method: as §1, §2, §3, §4, §5

leukaemia L1210/CDDP = experiment: Effect on leukaemia L1210/CDDP (cis-platinum resistant) in rats CD2 F1, i.p. (Table II); type: in vivo, rats CD2 Fl; conditions: for MST / T/C %: day 1; for LTS (60 days): day 1, 60 days
Method: ^a) 10^5 cell/rat injected i.p. at day
Compounds were administered at day "1

## O=C1c2c(O)ccc(O)c2C(=O)c2c(NCCNCCO)ccc(NCCNCCO)c21 [Mitoxanthrone]
Leukaemia P388; 3.75 mg/Kg
  MST: 32.5 days
  T/C %: 295%
  TOX: 0/7
  LTS (60 days): 2/7
Leukaemia P388; 11.1 mg/Kg
  MST: 36.5 days
  T/C %: 331%
  TOX: 0/7
  LTS (60 days): 1/7
Leukaemia P388; 18.4 mg/Kg
  MST: 42.5 days
  T/C %: 386%
  TOX: 0/7
  LTS (60 days): 1/7
Leukaemia P388; 25.8 mg/Kg
  MST: 40.5 days
  T/C %: 368%
  TOX: 1/7
  LTS (60 days): 0/7

## N.N.[Cl][Pt][Cl] [cis-platinum, cis-diaminodichloroplatinum II]
Leukaemia P388; 6 mg/Kg
  MST: 22.5 days
  T/C %: 198%
  LTS (60 days): 0/7
Leukaemia P388; 10 mg/Kg
  MST: 18.8 days
  T/C %: 162%
  LTS (60 days): 0/7
Leukaemia P388; 14 mg/Kg
  MST: 11.5 days
  T/C %: 99%
  LTS (60 days): 0/7
K562 cells; 1 ug/ml, after 24 hours
  IC % (inhibition percentage of cellular growth): 22%
K562 cells; 1 ug/ml, after 48 hours
  IC % (inhibition percentage of cellular growth): 52%
K562 cells; 1 ug/ml, after 72 hours
  IC % (inhibition percentage of cellular growth): 54%
K562 cells; 5 ug/ml, after 24 hours
  IC % (inhibition percentage of cellular growth): 28%
K562 cells; 5 ug/ml, after 48 hours
  IC % (inhibition percentage of cellular growth): 71%
K562 cells; 5 ug/ml, after 72 hours
  IC % (inhibition percentage of cellular growth): 82%
K562 cells; 10 ug/ml, after 24 hours
  IC % (inhibition percentage of cellular growth): 35%
K562 cells; 10 ug/ml, after 48 hours
  IC % (inhibition percentage of cellular growth): 76%
K562 cells; 10 ug/ml, after 72 hours
  IC % (inhibition percentage of cellular growth): 87%
K562 cells; 50 ug/ml, after 24 hours
  IC % (inhibition percentage of cellular growth): 52%
K562 cells; 50 ug/ml, after 48 hours
  IC % (inhibition percentage of cellular growth): 85%
K562 cells; 50 ug/ml, after 72 hours
  IC % (inhibition percentage of cellular growth): 91%
K562 cells; 100 ug/ml, after 24 hours
  IC % (inhibition percentage of cellular growth): 56%
K562 cells; 100 ug/ml, after 48 hours
  IC % (inhibition percentage of cellular growth): 85%
K562 cells; 100 ug/ml, after 72 hours
  IC % (inhibition percentage of cellular growth): 91%
Human tumors; clinical observation
  clinical efficacy: Clinical observation confirms the efficacy of the compound in a number of human tumors
Human tumors; clinical
  side effects: serious gastro-intestinal, renal side effects, hematologic and neurologic complications (ototoxicity)
L1210/CDDP cells; 0.5 ug/ml, after 24 hours
  IC % (inhibition percentage of cellular growth): 20%
L1210/CDDP cells; 0.5 ug/ml, after 48 hours
  IC % (inhibition percentage of cellular growth): 8%
L1210/CDDP cells; 0.5 ug/ml, after 72 hours
  IC % (inhibition percentage of cellular growth): 37%
L1210/CDDP cells; 1 ug/ml, after 24 hours
  IC % (inhibition percentage of cellular growth): 30%
L1210/CDDP cells; 1 ug/ml, after 48 hours
  IC % (inhibition percentage of cellular growth): 18%
L1210/CDDP cells; 1 ug/ml, after 72 hours
  IC % (inhibition percentage of cellular growth): 44%
L1210/CDDP cells; 5 ug/ml, after 24 hours
  IC % (inhibition percentage of cellular growth): 54%
L1210/CDDP cells; 5 ug/ml, after 48 hours
  IC % (inhibition percentage of cellular growth): 87%
L1210/CDDP cells; 5 ug/ml, after 72 hours
  IC % (inhibition percentage of cellular growth): 84%
L1210/CDDP cells; 10 ug/ml, after 24 hours
  IC % (inhibition percentage of cellular growth): 78%
L1210/CDDP cells; 10 ug/ml, after 48 hours
  IC % (inhibition percentage of cellular growth): 92%
L1210/CDDP cells; 10 ug/ml, after 72 hours
  IC % (inhibition percentage of cellular growth): 86%
L1210/CDDP cells; 50 ug/ml, after 24 hours
  IC % (inhibition percentage of cellular growth): 80%
L1210/CDDP cells; 50 ug/ml, after 48 hours
  IC % (inhibition percentage of cellular growth): 99%
L1210/CDDP cells; 50 ug/ml, after 72 hours
  IC % (inhibition percentage of cellular growth): 100%
Leukaemia L1210/CDDP; 5 mg/Kg
  MST: 11.1 days
  T/C %: 97%
  LTS (60 days): 0/10
Leukaemia L1210/CDDP; 7.5 mg/Kg
  MST: 11.6 days
  T/C %: 101%
  LTS (60 days): 0/10
Leukaemia L1210/CDDP; 12.5 mg/Kg
  MST: 9.3 days
  T/C %: 103%
  LTS (60 days): 0/10
